We go through eight compounds from US20250346600A1, “TRICYCLIC DERIVATIVES AND RELATED USES” (MOMA Therapeutics, Inc., priority 2023, published 2025).

The test system of assay [1] is HCT116 cells. The assay is described as follows: HCT116 (MSI) 7 day viability, CellTiter Glo. It is filed as cell-based. To be noted: 7 days, read-out: HCT116 (MSI) Viability 7 Day Abs AC50. How it is done:
(§1) Compounds were dissolved in DMSO to a concentration of 10 mM. Compounds were then serially diluted in 10 3-fold steps in DMSO using an EVO (Tecan). Plates were then spun down for 1 minute at 1,000 RPM at room temperature.
(§2) The colon carcinoma lines HCT116 (RRID: CVCL_0291) and HT29 (RRID: CVCL_0320) were obtained from ATCC. […] All cells were maintained at 37° C. with 5% CO2 incubator.
(§3) After harvesting, cells were spun down for 5 minutes at 1200 RPM. Cells were resuspended in 10 mL of growth media and counted using Countess (Thermo Fisher). Cell concentrations were adjusted to 50 cells/well for HCT116 and 500 cells/well for HT29. 50 μL of diluted cells were added to compound treated 384 well plates using a 12 channel, 300 uL electronic handheld pipette (Integra). Cell treated plates were placed in 37 C with 5% CO2 incubator for 7 days.
(§4) Afterwards, cells were removed from incubator and equilibrated to room temperature for 15 minutes. 35 uL of CellTiter Glo (Promega #G7573) reagent were added to each well using a 12 channel, 300 uL electronic handheld pipette (Integra). Plates were incubated for 20 minutes at room temperature. Luminescence quantification was performed using Envision (PerkinElmer).
(§5) For data analysis, the assay background signal was determined in wells containing medium, but no cells. Potencies were calculated by linear least squares fit to the four-parameter logistic IC50 equation. The reported IC50 values are the geometrical mean of at least 2 independent replicates.

Assay [2] has as its system HT29 cells. Description: HT29 (MSS) 7 day viability, CellTiter Glo. It is filed as cell-based. To be noted: 7 days, read-out: HT29 (MSS) Viability 7 Day CTGAbs AC50. How it is done:
as §1, §2, §3, §4, §5
A general note: ATP-based viability assays read luminescence as a measure of living cells.

The target of assay [3] is Full length WRN protein (aa 2-1432) (Homo sapiens (Human), UniProt Q14191). Description: WRN ATPase ADP-Glo biochemical assay, Assay Format B (100 μM ATP). To be noted: 0.25 nM WRN, 100 nM C6.18 ssDNA, 60 min preincubation, read-out: ATPase ADPGlo AC50 (uM)- Assay Format B.

Where two headings read alike, the source gives them in different places.

Full length WRN protein (aa 2-1432), sequence (Q14191 2-1432): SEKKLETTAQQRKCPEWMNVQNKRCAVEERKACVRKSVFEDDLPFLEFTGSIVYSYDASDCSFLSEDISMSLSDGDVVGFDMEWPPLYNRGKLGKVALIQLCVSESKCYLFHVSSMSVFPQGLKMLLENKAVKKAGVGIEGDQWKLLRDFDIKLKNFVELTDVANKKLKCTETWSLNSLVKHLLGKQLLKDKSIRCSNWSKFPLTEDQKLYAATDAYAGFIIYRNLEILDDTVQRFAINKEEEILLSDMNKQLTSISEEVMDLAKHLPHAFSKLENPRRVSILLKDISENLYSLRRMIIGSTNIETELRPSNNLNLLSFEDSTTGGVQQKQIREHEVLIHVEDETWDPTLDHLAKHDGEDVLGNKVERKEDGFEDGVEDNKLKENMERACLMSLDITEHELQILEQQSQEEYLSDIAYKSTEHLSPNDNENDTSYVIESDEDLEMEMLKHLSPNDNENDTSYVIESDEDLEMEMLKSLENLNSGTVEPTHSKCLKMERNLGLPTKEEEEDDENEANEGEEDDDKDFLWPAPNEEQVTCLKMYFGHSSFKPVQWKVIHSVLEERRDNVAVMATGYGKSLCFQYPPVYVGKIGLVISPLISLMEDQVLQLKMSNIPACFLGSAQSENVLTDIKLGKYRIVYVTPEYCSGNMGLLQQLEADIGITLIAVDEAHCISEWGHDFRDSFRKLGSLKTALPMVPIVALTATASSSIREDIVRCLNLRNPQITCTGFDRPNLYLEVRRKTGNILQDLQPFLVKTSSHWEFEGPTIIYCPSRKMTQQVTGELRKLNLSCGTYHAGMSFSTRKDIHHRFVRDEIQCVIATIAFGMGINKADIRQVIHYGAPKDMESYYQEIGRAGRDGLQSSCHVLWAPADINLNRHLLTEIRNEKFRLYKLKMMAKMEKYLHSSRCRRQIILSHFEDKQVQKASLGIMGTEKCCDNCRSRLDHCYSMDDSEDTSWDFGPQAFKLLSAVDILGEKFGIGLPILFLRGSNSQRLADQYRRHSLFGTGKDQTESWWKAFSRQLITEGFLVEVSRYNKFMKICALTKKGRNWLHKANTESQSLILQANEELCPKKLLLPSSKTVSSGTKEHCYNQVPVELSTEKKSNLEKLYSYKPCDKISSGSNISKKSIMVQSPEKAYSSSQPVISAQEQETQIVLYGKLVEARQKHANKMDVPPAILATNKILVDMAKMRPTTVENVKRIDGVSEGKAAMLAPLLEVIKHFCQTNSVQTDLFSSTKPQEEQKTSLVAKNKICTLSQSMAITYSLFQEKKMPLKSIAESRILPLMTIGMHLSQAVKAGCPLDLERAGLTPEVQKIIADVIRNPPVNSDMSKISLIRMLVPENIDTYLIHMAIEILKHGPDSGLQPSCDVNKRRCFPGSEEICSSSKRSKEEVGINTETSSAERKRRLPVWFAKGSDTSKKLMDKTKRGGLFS

Regarding `C=CC(=O)N1CCc2nn(-c3ccc(C4CC4)cc3)c3c2C(C1)N(C(=O)c1cnc(SC)nc1N)CC3` (stereo not shown) [Compound 204, 1-(5-(4-amino-2-(methylthio)pyrimidine-5-carbonyl)-2-(4-cyclopropylphenyl)-2,3,4,5,5a,6,8,9-octahydro-7H-1,2,5,7-tetraazabenzo[cd]azulen-7-yl)prop-2-en-1-one], the AC50 is 1 to 100 nM in assay [1] (Homo sapiens, HCT-116, 168 h); above 3000 nM in assay [2] (Homo sapiens, HT-29, 168 h); 0.015 to 0.055 µM in assay [3].
On the same counts, the results for `C=CC(=O)N1CCc2nn(-c3ccc(C(C)C)c(F)c3O)c3c2C(C1)N(C(=O)c1cnc(C(F)(F)F)c(O)c1)CC3` (stereo not shown) [Compound 64, 1-(2-(3-fluoro-2-hydroxy-4-isopropylphenyl)-5-(5-hydroxy-6-(trifluoromethyl)nicotinoyl)-2,3,4,5,5a,6,8,9-octahydro-7H-1,2,5,7-tetraazabenzo[cd]azulen-7-yl)prop-2-en-1-one] are 1 to 100 nM, above 3000 nM and 0.015 to 0.055 µM.
On the same counts, the results for `C=CC(=O)N1CCc2nn(-c3ccc(C4CCCC4)cc3O)c3c2C(C1)N(C(=O)c1cnc(C(F)(F)F)cc1N)CC3` (stereo not shown) [Compound 217, 1-(5-(4-amino-6-(trifluoromethyl)nicotinoyl)-2-(4-cyclopentyl-2-hydroxyphenyl)-2,3,4,5,5a,6,8,9-octahydro-7H-1,2,5,7-tetraazabenzo[cd]azulen-7-yl)prop-2-en-1-one] are 1 to 100 nM, above 3000 nM and 0.0015 to 0.005 µM.
Taken in the same sequence, the figures for `C=CC(=O)N1CCc2nn(-c3ccc(C4CC4)cc3O)c3c2C(C1)N(C(=O)c1cc(C#N)c(C(F)(F)F)cc1N)CC3` (stereo not shown) [Compound 207, 5-(7-acryloyl-2-(4-cyclopropyl-2-hydroxyphenyl)-3,4,5,5a,6,7,8,9-octahydro-2H-1,2,5,7-tetraazabenzo[cd]azulene-5-carbonyl)-4-amino-2-(trifluoromethyl) benzonitrile] were 1 to 100 nM, above 3000 nM and 0.005 to 0.015 µM.
As to `C=CC(=O)N1CC(C)c2nn(-c3ccc(C4CC4)cc3O)c3c2C(C1)N(C(=O)c1cnc(Br)cc1N)CC3` (stereo not shown) [Compound 190, 1-(5-(4-amino-6-bromonicotinoyl)-2-(4-cyclopropyl-2-hydroxyphenyl)-9-methyl-2,3,4,5,5a,6,8,9-octahydro-7H-1,2,5,7-tetraazabenzo[cd]azulen-7-yl)prop-2-en-1-one], the half-maximal activity concentration (AC50) in assay [1] (Homo sapiens, HCT-116, 168 h) was 1 to 100 nM; in assay [2] (Homo sapiens, HT-29, 168 h) it was above 3000 nM; in assay [3], 0.005 to 0.015 µM.
Taken in the same sequence, the figures for `C=CC(=O)N1CCc2nn(-c3ccc(C4CCC4)cc3O)c3c2C(C1)N(C(=O)c1ccc(C(F)(F)F)nc1N)CC3` (stereo not shown) [Compound 76, 1-(5-(2-amino-6-(trifluoromethyl)nicotinoyl)-2-(4-cyclobutyl-2-hydroxyphenyl)-2,3,4,5,5a,6,8,9-octahydro-7H-1,2,5,7-tetraazabenzo[cd]azulen-7-yl)prop-2-en-1-one] were 1 to 100 nM, above 3000 nM and 0.005 to 0.015 µM.
For `C=CC(=O)N1CCOc2nn(-c3ccc(C(C)C)c(O)n3)c3c2C(C1)N(C(=O)c1ccc(Br)c2[nH]cnc12)CC3` (stereo not shown) [Compound 105, 1-(5-(7-bromo-1H-benzo[d]imidazole-4-carbonyl)-2-(6-hydroxy-5-isopropylpyridin-2-yl)-2,3,4,5,5a,6,8,9-octahydro-7H-10-oxa-1,2,5,7-tetraazacycloocta[cd]inden-7-yl)prop-2-en-1-one], the AC50 in assay [1] (Homo sapiens, HCT-116, 168 h) is above 1000 nM; in assay [2] (Homo sapiens, HT-29, 168 h), above 3000 nM.
Regarding “1-(5-(7-bromo-1H- benzo[d]imidazole-4- carbonyl)-2-(4- cyclobutylphenyl)- 2,3,4,5,5a,6-hexahydro- 1,2,5,7- tetraazaspiro[benzo[cd] azulene-9,1′- cyclopropan]-1(9a),2a- dien-7(8H)-yl)prop-2-en- 1-one [Compound 169]”, the AC50 was 1 to 100 nM in assay [1] and above 3000 nM in assay [2].

Broadly, the AC50 is the concentration at which the activity in the assay is half-maximal.
